The term solubility (kinetic) denotes the concentration staying in solution when a stock, usually in DMSO, is diluted into the medium.

In brackets after ≈: the same amount, converted by molar mass. Where only a bound is given, the exact number is not on record here.

From PubChem BioAssay AID1996 come the findings set out here.

The conditions of this data set: buffer; pH 7.4; 200.0 µM.
`O=C(CCC(=O)N1CCN(S(=O)(=O)c2ccc([N+](=O)[O-])cc2)CC1)N1CCOCC1`: the kinetic solubility is greater than 66.1 µg/mL. For `O=C1CC(C(=O)N2CCc3ccccc32)CN1c1ccccc1` (configuration not stated), the solubility (kinetic) was found to be 9.2 µg/mL (≈ 30 µM). On to `Cc1cccc(Cl)c1OCCN1CCCC1.O=C(O)C(=O)O`, for which the kinetic solubility was greater than 49.5 µg/mL. The compound `O=C(Nc1ccccc1C(F)(F)F)c1ccccn1` yielded a kinetic solubility of 6.7 µg/mL (≈ 25.2 µM).

As for `Cc1[nH]c2ccccc2c1C(=O)C(=O)Nc1ccc2c(c1)OCCO2`, the kinetic solubility is 1.9 µg/mL (≈ 5.65 µM). The compound `Cc1cc(C)cc(OCCN2CCOCC2)c1` showed a kinetic solubility of 22.5 µg/mL (≈ 95.6 µM). To `COc1cccc(Nc2nc(-c3sc(C)nc3C)cs2)c1` belongs 0.3 µg/mL (≈ 0.945 µM). Consider `Cl.NCCSC1CC(=O)N(Cc2ccc(F)cc2)C1=O` (configuration not stated), for which the kinetic solubility came out at 37.9 µg/mL. To `CC1(C)CC(=O)c2cnc(NC(=O)CSC(=S)N3CCCCC3)nc2C1` belongs 2.9 µg/mL (≈ 7.39 µM). `O=C(O)Cn1cc(C=C2C(=O)NC(=O)NC2=O)c2ccccc21`: the kinetic solubility is greater than 47 µg/mL. In turn, `CN1CCC(NC(=S)Nc2cccc([N+](=O)[O-])c2)CC1` showed a solubility (kinetic) greater than 44.2 µg/mL. Consider `Nc1ccccc1NC(=O)NC(=O)c1ccccc1`, for which the kinetic solubility amounted to 6.1 µg/mL (≈ 23.9 µM). In turn, `Cc1cc2ccccn2c1C(=O)c1ccc([N+](=O)[O-])o1` had a solubility (kinetic) of 1.3 µg/mL (≈ 4.81 µM). `O=C(NC1(C(F)(F)F)NC(=O)N(C2CCCCC2)C1=O)c1ccco1` (configuration not stated) had a solubility (kinetic) of 50.2 µg/mL (≈ 140 µM). Compared with the last compound, the solubility kinetic is about 39-fold higher. `CCn1cnnc1SCC(=O)Nc1ccccc1C(=O)NC1CC1`: the kinetic solubility was greater than 51.8 µg/mL. With `CC1(C)C2([N+](=O)[O-])CN3CC1([N+](=O)[O-])CN(C2)C3c1ccccn1` (configuration not stated), the solubility (kinetic) came to 7.9 µg/mL (≈ 23.7 µM).

As to `Cc1noc(C)c1S(=O)(=O)Nc1ccccc1Oc1ccccc1`, the solubility (kinetic) is 37.5 µg/mL (≈ 109 µM). The result for `CCC1CCc2c(sc(NC(=O)c3cnccn3)c2C(N)=O)C1` (configuration not stated) reads 1.8 µg/mL (≈ 5.45 µM); that for `O=c1cc(Cl)c2ccccc2n1-c1ccccc1`, greater than 38.4 µg/mL. The result for `COc1cc(NC(=O)C(=O)N2CCN(C)CC2)c(OC)cc1Cl` reads greater than 51.3 µg/mL. With `CCCCN1C(=O)C(C)=C(C)C1OCCc1ccc(OC)c(OC)c1` (configuration not stated), the kinetic solubility was determined as 50.5 µg/mL (≈ 145 µM).

Compound `COc1cccc(NC(=O)COC(=O)c2ccc3ccccc3n2)c1` came in with a solubility (kinetic) of 43.4 µg/mL (≈ 129 µM).

With `Cc1ccc(OCc2ccccc2C)c([N+](=O)[O-])n1`, the kinetic solubility was determined as 18.4 µg/mL (≈ 71.2 µM). Compared with the last compound, the solubility kinetic is about 2.4-fold lower.

As to `CC(NC(=O)c1ccc(Br)o1)C1CCCO1` (configuration not stated), the kinetic solubility was greater than 43.2 µg/mL. With `CCNS(=O)(=O)c1ccc(CCC(=O)NCc2cccnc2)cc1`, the kinetic solubility amounted to 35.6 µg/mL (≈ 102 µM). The compound `Cc1ccc(O)c(NC(=O)c2cc(-c3ccc(F)cc3)on2)c1` came in with a kinetic solubility of less than 0.3 µg/mL. In turn, `Cc1ccc(NC2=C(Cl)C(=O)OC2OC(=O)c2ccc(C)cc2)cc1` (configuration not stated) returned a kinetic solubility of 2.6 µg/mL (≈ 7.27 µM). Regarding `Cc1cc(F)ccc1S(=O)(=O)Nc1ccc(C(=O)N2CCCCC2)cc1`, the solubility (kinetic) was greater than 56.5 µg/mL.

In turn, `O=C(COC(=O)[C@@H]1CC(O)CN1S(=O)(=O)c1ccc2c(c1)OCCO2)Nc1cc(F)ccc1F` (some centres not stated) gave a solubility (kinetic) greater than 74.8 µg/mL. To `O=C1Cc2cc(S(=O)(=O)N3CCNCC3)ccc2N1` belongs 39.1 µg/mL (≈ 139 µM); to `O=C(Nc1ccc2oc(-c3ccncc3)nc2c1)c1ccc(F)cc1`, 0.9 µg/mL (≈ 2.7 µM); to `Fc1ccccc1C1CCN(Cc2nc(COc3ccccc3)no2)C1` (configuration not stated), 12.7 µg/mL (≈ 35.9 µM). The compound `Cc1cccc(OCCCN2C(=O)C(=O)c3cc(C)ccc32)c1` gave a solubility (kinetic) of 10.7 µg/mL (≈ 34.6 µM). To `O=C(CSc1ncccn1)N1CCCc2ccccc21` belongs greater than 42.8 µg/mL. As to `O=[N+]([O-])c1ccccc1NCc1ccccc1Cl`, the solubility (kinetic) is less than 0.3 µg/mL.

`O=S(=O)(Cc1ccccc1)Nc1ccccc1`: the solubility (kinetic) was greater than 37.1 µg/mL. Turning to `NC(=O)c1oc2ccccc2c1NC(=O)C1COc2ccccc2O1` (configuration not stated), the kinetic solubility was less than 0.4 µg/mL. The result for `COc1ccc2cc(C(C)C(=O)N3CCC(C(N)=O)CC3)ccc2c1` (configuration not stated) reads greater than 51.1 µg/mL; that for `O=C1CCc2ccc(NS(=O)(=O)c3ccc(F)cc3)cc2N1`, greater than 48.1 µg/mL.

`CCCn1c(=O)c(C(=O)NCc2ccco2)c(O)c2ccccc21` gave a kinetic solubility of less than 0.3 µg/mL.

`COc1ccc(C(=O)OCC(=O)c2ccc3c(c2)NC(=O)CO3)cc1[N+](=O)[O-]` returned a kinetic solubility of 2.7 µg/mL (≈ 6.99 µM). With `CC(=O)Nc1ccc(S(=O)(=O)NCc2ccncc2)cc1`, the kinetic solubility was greater than 45.8 µg/mL.

As for `CCOc1ccc(N/C=C/C(=O)c2cc(OC)c(OC)c(OC)c2)cc1`, the kinetic solubility was less than 0.8 µg/mL. The result for `COc1cc(C2C(C#N)=C(N)Oc3cc(C)oc(=O)c32)cc(OC)c1OC` (configuration not stated) reads greater than 55.6 µg/mL; that for `O=C(COC(=O)c1cc(Cl)ccc1[N+](=O)[O-])NC1CC1`, greater than 44.8 µg/mL; that for `COc1ccccc1C(=O)NC1CC(C)(C)NC(C)(C)C1`, greater than 43.6 µg/mL. To `COC(=O)c1cc(C(=O)N2CCOCC2)cc([N+](=O)[O-])c1` belongs greater than 44.1 µg/mL; to `CCCOC(=O)Nc1nc(-c2ccc(C)cc2)c(C)s1`, 1.3 µg/mL (≈ 4.48 µM). In turn, `O=C(Nc1nc(-c2ccccc2)cs1)c1ccco1` yielded a kinetic solubility of 22.3 µg/mL (≈ 82.5 µM). `Cc1cc(Cl)cc(C)c1OCC(=O)NC1CCCCCC1` displayed a kinetic solubility of 1.9 µg/mL (≈ 6.13 µM). Take `COc1ccc(/C=C/C(=O)O)cc1S(=O)(=O)NCc1ccccc1`: the kinetic solubility was 49.6 µg/mL (≈ 143 µM).

Take `Cn1c(=O)c2c(ncn2CCO)n(C)c1=O`: the kinetic solubility was greater than 33.6 µg/mL. `CC(C)c1nc(SCC(=O)NC(=O)NC(C)(C)C)n[nH]1` displayed a kinetic solubility greater than 44.9 µg/mL.

In turn, `CCCOc1c(Cl)cc(C(=O)NC)cc1OC` displayed a kinetic solubility greater than 38.7 µg/mL. `CC1(C)Cc2ccccc2C(CSc2ccccc2C(=O)O)=N1` showed a kinetic solubility of 43.1 µg/mL (≈ 132 µM). Compound `O=C(/C=C/c1ccc([N+](=O)[O-])s1)N1CCCCC1` yielded a kinetic solubility greater than 39.9 µg/mL.

As for `CC(C)n1c(NCc2ccccc2O)nc2ccccc21`, the solubility (kinetic) stood at 15.8 µg/mL (≈ 56.2 µM). The result for `O=C(Cc1cccs1)NCc1ccc(Cl)cc1Cl` reads 13.1 µg/mL (≈ 43.6 µM); that for `COC(=O)c1ccsc1NC(=O)CN1CCN(c2ncccn2)CC1`, 4.1 µg/mL (≈ 11.3 µM). In turn, `Cc1cc(F)ccc1NC(=O)c1cccnc1` returned a kinetic solubility greater than 34.5 µg/mL. On to `Cc1ccc(Cl)c(OCC(=O)Nc2cccnc2)c1`, for which the solubility (kinetic) came out at 15.6 µg/mL (≈ 56.4 µM). Turning to `CC1CCN(C(=O)NC(=O)c2ccc(Cl)cc2)CC1`, the kinetic solubility is greater than 42.1 µg/mL. Take `CC(C)CC(N=Cc1c(O)c2ccccc2oc1=O)C(=O)O` (configuration not stated): the solubility (kinetic) was greater than 45.5 µg/mL.

`CCCCC(=O)N1CC(=O)Nc2ccc(F)cc2C1c1ccc(F)cc1` (configuration not stated) came in with a solubility (kinetic) greater than 53.8 µg/mL. To `O=C1NC(=O)C(=Cc2ccsc2)C(=O)N1` belongs greater than 33.3 µg/mL; to `O=C(Cc1ccccc1)c1ccccc1C(=O)N1CCCCC1`, greater than 46.1 µg/mL; to `COC(=O)CSc1nnc(CCc2ccccc2)n1C`, greater than 43.7 µg/mL. The compound `COc1ccc(NS(=O)(=O)c2cc(NC(=O)c3ccccc3)ccc2N2CCOCC2)cc1` registered a solubility (kinetic) of 13.1 µg/mL (≈ 28 µM). Compound `CNc1nc(-c2ccc(S(=O)(=O)N3CCCCC3)cc2)cs1` came in with a solubility (kinetic) of 2.8 µg/mL (≈ 8.3 µM). Compared with the last compound, the solubility kinetic is about 4.7-fold lower. To `O=C(NC1CCN(C(=O)Nc2cccc(Cl)c2)CC1)c1ccco1` belongs 46.1 µg/mL (≈ 133 µM). `O=C(NN1CCOCC1)c1ccc(Cl)c([N+](=O)[O-])c1` came in with a solubility (kinetic) greater than 42.9 µg/mL.

The compound `Cc1cc(C)nc(SCC(=O)c2ccc(C)c(C)c2)n1` showed a solubility (kinetic) of 19.3 µg/mL (≈ 67.4 µM). For the compound `Cc1ccc(-c2cc(C(=O)N3CCC(C)CC3)c3ccccc3n2)cc1`, the solubility (kinetic) came out at 6.6 µg/mL (≈ 19.2 µM). On to `Cc1c(C(=O)O)sc2nc3n(c(=O)c12)CCC3`, for which the kinetic solubility was greater than 37.5 µg/mL.

Regarding `CC(=O)c1ccc[n+](CC(=O)NC(C)c2ccccc2)c1.[Cl-]` (configuration not stated), the solubility (kinetic) is greater than 47.8 µg/mL. Turning to `CCN1CNC(=S)N(c2cccc(C)c2)C1`, the kinetic solubility was greater than 35.3 µg/mL. As to `CC(=O)N1CCN(c2ccccc2NC(=O)c2cccs2)CC1`, the kinetic solubility is greater than 49.4 µg/mL. `CCN1CCN(CC(=O)Nc2cc(S(=O)(=O)N(CC)c3ccccc3)ccc2Cl)CC1.Cl` yielded a kinetic solubility greater than 75.2 µg/mL. Consider `Cc1ccc(NC(=O)COC(=O)C2CC2)cc1Cl`, for which the kinetic solubility worked out at 35.6 µg/mL (≈ 133 µM). The result for `CC(C)(C)NC(=O)Cn1c(Cl)nc2ccccc21` reads greater than 39.9 µg/mL; that for `C/C(N)=C(/C#N)C(=O)COC(=O)c1cccc(C)c1O`, 1.5 µg/mL (≈ 5.47 µM). For `Cl.NC(N)=Nc1nc(-c2ccccc2)c2cc(Cl)ccc2n1`, the solubility (kinetic) is 9.7 µg/mL.

`COc1ccc(N2C(=O)NC(=O)C2=O)cc1` came in with a solubility (kinetic) greater than 33 µg/mL. As to `CCN(CC)c1ccc(N=CN2CCOCC2)cc1`, the solubility (kinetic) was found to be 35.9 µg/mL (≈ 137 µM). To `COc1cccc(CNC(=O)c2csc3c2CCCC3)c1` belongs 19.5 µg/mL (≈ 64.7 µM); to `CCC(=O)N1CCN=C1SCc1cccc(C(F)(F)F)c1`, 40.8 µg/mL (≈ 129 µM). Consider `Cc1cnc(NS(=O)(=O)c2ccc(Cl)cc2)c(Br)c1`, for which the kinetic solubility is greater than 54.2 µg/mL. The result for `COc1cc([N+](=O)[O-])ccc1NC(=S)N1CCOCC1` reads greater than 44.6 µg/mL; that for `CCCN1CCC(N2CCCC(C(=O)O)C2)CC1.Cl` (configuration not stated), greater than 49.1 µg/mL. `CC1(C)Cc2c(sc3c2c(N)nc(=S)n3Cc2ccccc2)CO1` registered a kinetic solubility of 2.3 µg/mL (≈ 6.43 µM).

Take `Cc1cc(NC(=O)CSc2nc3cc(C)c(C)cc3cc2C)no1`: the kinetic solubility is less than 0.2 µg/mL. As to `CCCc1cc(=O)[nH]c(SCC(=O)N2CCc3ccccc32)n1`, the solubility (kinetic) came out at 7.6 µg/mL (≈ 23.1 µM). `Cc1ccc(CSCc2ccc(C(=O)NCCC(C)C)o2)cc1` had a kinetic solubility of 2.2 µg/mL (≈ 6.64 µM).

Compound `Cc1ccc(N(C)C2=NC(=O)CS2)cc1Cl` came in with a solubility (kinetic) of 34.8 µg/mL (≈ 137 µM). With `CCCCN(CC)C(=O)c1cc2c(=O)n3cccc(C)c3nc2s1`, the solubility (kinetic) is 44.5 µg/mL (≈ 130 µM). The solubility kinetic values of the last two compounds are within 1.5-fold of each other.

`COc1ccccc1C1CCN(Cc2ccc(C)cc2)CC1`: the solubility (kinetic) was 29.8 µg/mL (≈ 101 µM). Take `CC(C)NC(=O)NC(=O)COC(=O)C1(C)CC1(Cl)Cl` (configuration not stated): the kinetic solubility is greater than 46.7 µg/mL.

The compound `Cc1ccc(OS(=O)(=O)c2cn(C)c(=O)n(C)c2=O)cc1C` returned a solubility (kinetic) greater than 48.7 µg/mL.

In the case of `O=[N+]([O-])c1ccc(O)c([N+](=O)[O-])c1`, the kinetic solubility is greater than 27.6 µg/mL. `CC(C(=O)Nc1ccc(C#N)cc1)N(C)CC(=O)Nc1cccc(F)c1` (configuration not stated) registered a solubility (kinetic) of 5.9 µg/mL (≈ 16.6 µM).

In the case of `O=C(NC(=O)c1ccc(C(F)(F)F)cc1)Nc1ccc(-c2cnco2)cc1`, the solubility (kinetic) came out at 2.8 µg/mL (≈ 7.46 µM). Compared with the last compound, the solubility kinetic is about 2.1-fold lower. `O=C(C1CC1)N1CCN(c2ccc([N+](=O)[O-])cc2)CC1` displayed a kinetic solubility greater than 41.3 µg/mL.
